Results from US12077531B2, “Imidazopyridinone compound” (KISSEI PHARMACEUTICAL CO., LTD., priority 2018, dated 2024).
Counter-ions that a name gives are not always drawn.

These compounds were tested against human PHD2184-418 (Homo sapiens (Human), UniProt Q9GZT9) (assay: PHD2 inhibitory test (fluorescence polarization, binding between PHD2 and HIF-1α)). Conditions: human PHD2184-418, FITC-labeled HIF-1α556-574, 2 μM 2-oxoglutarate, 37° C. 60 minutes.
Experimental: Test Example 1 PHD2 Inhibitory Test
(1) Expression and Preparation of Human PHD2184-418
Human PHD2184-418 containing amino acid residues 184 to 418 of the protein represented by CAC42509 (GenBank accession ID) was expressed and prepared by the following method.
An expression construct of human PHD2184-418 containing N-terminal histidine tag was introduced into pET-30a (+) vector, and the sequence was confirmed. This vector was introduced into BL21 (DE3) strain and cultured at 37° C. in LB medium containing antibiotics. After culturing, a cell lysis solution was added to the cells, and then the cells were disrupted by sonication. The disrupted suspension was centrifuged and the supernatant was purified by Ni column to give human PHD2184-418.
Human HIF-1α556-574 (FITC-labeled HIF-1α556-574), containing N-terminal FITC-Ahx, containing amino acid residues 556 to 574 (partial peptide) of HIF-1α was used as a substrate. Using FITC-labeled HIF-1α556-574, the competitive inhibition between 2-oxoglutarate and test compounds (PHD inhibitor) was evaluated based on the change in fluorescence polarization by the following method.
An enzyme (human PHD2184-418) and the substrate were diluted with an assay buffer (pH 7.4) containing 10 mM HEPES, 150 mM NaCl, 10 μM MnCl2-4H2O, 2 μM 2-oxoglutarate and 0.05% Tween-20. Test compounds were diluted with DMSO. Test compounds and human PHD2184-418 was added to the 384-well plate (Corning, black, opaque bottom) in advance. The reaction was started by the addition of FITC-labeled HIF-1α556-574. After incubating at 37° C. for 60 minutes, fluorescence polarization (excitation wavelength: 470 nm, fluorescence wavelength: 530 nm) was measured by PHERAstar FSX (BMG Labtech). Fluorescence polarization of each well was measured, and human PHD2 binding inhibitory activity of test compounds was calculated based on the value of test compound-free group.

Sequence of human PHD2184-418 (Q9GZT9 184-418): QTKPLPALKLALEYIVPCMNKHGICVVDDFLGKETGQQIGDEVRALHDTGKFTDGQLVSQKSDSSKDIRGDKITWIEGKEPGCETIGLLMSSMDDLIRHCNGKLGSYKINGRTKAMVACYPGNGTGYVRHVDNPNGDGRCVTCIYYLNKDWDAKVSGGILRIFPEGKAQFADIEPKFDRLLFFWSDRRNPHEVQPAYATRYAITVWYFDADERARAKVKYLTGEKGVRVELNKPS

| Compound | IC50 [nM] |
| --- | --- |
| Cn1ccnc1CN1CC(n2c(=O)n(-c3ccc(-c4ccccc4)cc3)c3cccnc32)C1 [Example 13, 1-([1,1′-Biphenyl]-4-yl)-3-(1-((1-methyl-1H-imidazol-2-yl)methyl)azetidin-3-yl)-1,3-dihydro-2H-imidazo[4,5-b]pyridin-2-one] | 120 |
| O=c1n(-c2ccc(-c3ccccc3)cc2)c2cccnc2n1[C@H]1CCN(Cc2ccc(O)cn2)C1 [Example 9, (S)-1-([1,1′-Biphenyl]-4-yl)-3-(1-((5-hydroxypyridin-2-yl)methyl)pyrrolidin-3-yl)-1,3-dihydro-2H-imidazo[4,5-b]pyridin-2-one] | 8030 |
| COc1ccc(-n2c(=O)n([C@H]3CCN(Cc4cc(C(=O)O)ccn4)C3)c3ncccc32)cc1 [Example 18, (S)-2-((3-(1-(4-Methoxyphenyl)-2-oxo-1,2-dihydro-3H-imidazo[4,5-b]pyridin-3-yl)pyrrolidin-1-yl)methyl)isonicotinic acid] | 1950 |
| Cn1ccnc1CN1CC[C@H](n2c(=O)n(-c3ccccc3)c3cccnc32)C1 [Example 11, (S)-3-(1-((1-Methyl-1H-imidazol-2-yl)methyl)pyrrolidin-3-yl)-1-phenyl-1,3-dihydro-2H-imidazo[4,5-b]pyridin-2-one hydrochloride] | 85400 |
| O=c1n(-c2ccc(-c3ccccc3)cc2)c2cccnc2n1[C@H]1CCN(Cc2ccccn2)C1 [Example 4, (S)-1-([1,1′-Biphenyl]-4-yl)-3-(1-(pyridin-2-ylmethyl)pyrrolidin-3-yl)-1,3-dihydro-2H-imidazo[4,5-b]pyridin-2-one] | 3450 |
| O=C(O)c1ccc(CN2CC[C@H](n3c(=O)n(-c4ccc(-c5ccccc5)cc4)c4cccnc43)C2)nc1 [Example 17, (S)-6-((3-(1-([1,1′-Biphenyl]-4-yl)-2-oxo-1,2-dihydro-3H-imidazo[4,5-b]pyridin-3-yl)pyrrolidin-1-yl)methyl)nicotinic acid] | 520 |
| Cc1cc(-c2ccccc2)ccc1-n1c(=O)n([C@@H]2CCN(Cc3nccn3C)C2)c2ncccc21 [Example 30, (R)-3-(1-((1-Methyl-1H-imidazol-2-yl)methyl)pyrrolidin-3-yl)-1-(3-methyl-[1,1′-biphenyl]-4-yl)-1,3-dihydro-2H-imidazo[4,5-b]pyridin-2-one] | 3480 |
| COC(=O)c1ccc(-n2c(=O)n([C@H]3CCN(Cc4ncccc4C)C3)c3ncccc32)cc1 [Example 15, Methyl (S)-4-(3-(1-((3-methylpyridin-2-yl)methyl)pyrrolidin-3-yl)-2-oxo-2,3-dihydro-1H-imidazo[4,5-b]pyridin-1-yl)benzoate] | 64500 |
| Cc1cnc2c(c1)n(-c1ccc(-c3ccc(C(=O)O)cc3)cc1)c(=O)n2[C@H]1CCN(Cc2ncc(C(=O)O)n2C)C1 [Example 27, (S)-2-((3-(1-(4′-Carboxy-[1,1′-biphenyl]-4-yl)-6-methyl-2-oxo-1,2-dihydro-3H-imidazo[4,5-b]pyridin-3-yl)pyrrolidin-1-yl)methyl)-1-methyl-1H-imidazole-5-carboxylic acid] | 110 |
| Cc1cccnc1CN1CC[C@H](n2c(=O)n(-c3ccc(-c4ccc(C#N)cc4)cc3)c3cccnc32)C1 [Example 34, (S)-4′-(3-(1-((3-Methylpyridin-2-yl)methyl)pyrrolidin-3-yl)-2-oxo-2,3-dihydro-1H-imidazo[4,5-b]pyridin-1-yl)-[1,1′-biphenyl]-4-carbonitrile] | 5700 |
| O=c1n(-c2ccc(-c3ccccc3)cc2)c2cccnc2n1[C@H]1CCN(Cc2c[nH]cn2)C1 [Example 5, (S)-3-(1-((1H-Imidazol-4-yl)methyl)pyrrolidin-3-yl)-1-([1,1′-biphenyl]-4-yl)-1,3-dihydro-2H-imidazo[4,5-b]pyridin-2-one] | 2980 |
| Cn1ccnc1CN1CC[C@H](n2c(=O)n(-c3ccc(-c4ccncc4)cc3)c3cccnc32)C1 [Example 36, (S)-3-(1-((1-Methyl-1H-imidazol-2-yl)methyl)pyrrolidin-3-yl)-1-(4-(pyridin-4-yl)phenyl)-1,3-dihydro-2H-imidazo[4,5-b]pyridin-2-one hydrochloride] | 1510 |

Now from value to compound:

| IC50 [nM] | Compound |
| --- | --- |
| 180 | Cn1c(C(=O)O)cnc1CN1CC[C@H](n2c(=O)n(-c3ccc(Cl)cc3)c3cccnc32)C1 [Example 59, (S)-2-((3-(1-(4-Chlorophenyl)-2-oxo-1,2-dihydro-3H-imidazo[4,5-b]pyridin-3-yl)pyrrolidin-1-yl)methyl)-1-methyl-1H-imidazole-5-carboxylic acid] |
| 490 | CN(C)c1ccc(-n2c(=O)n([C@H]3CCN(Cc4ncc(C(=O)O)n4C)C3)c3ncccc32)cc1 [Example 55, (S)-2-((3-(1-(4-(Dimethylamino)phenyl)-2-oxo-1,2-dihydro-3H-imidazo[4,5-b]pyridin-3-yl)pyrrolidin-1-yl)methyl)-1-methyl-1H-imidazole-5-carboxylic acid] |
| 7460 | Cc1cccnc1CN1CC[C@H](n2c(=O)n(-c3ccc(-c4ccncc4)cc3)c3cccnc32)C1 [Example 90, (S)-3-(1-((3-Methylpyridin-2-yl)methyl)pyrrolidin-3-yl)-1-(4-(pyridin-4-yl)phenyl)-1,3-dihydro-2H-imidazo[4,5-b]pyridin-2-one] |
| 8150 | Cn1c(C(=O)O)cnc1CN1CC[C@H](n2c(=O)n(C3CCC(c4ccccc4)CC3)c3cccnc32)C1 (stereo partly drawn) [Example 68, (S)-1-Methyl-2-((3-(2-oxo-1-(4-phenylcyclohexyl)-1,2-dihydro-3H-imidazo[4,5-b]pyridin-3-yl)pyrrolidin-1-yl)methyl)-1H-imidazole-5-carboxylic acid] |
| 65900 | Cn1c(C#N)cnc1CN1CC[C@H](n2c(=O)n(-c3ccc(-c4ccncc4)cc3)c3cccnc32)C1 [Example 80, (S)-1-Methyl-2-((3-(2-oxo-1-(4-(pyridin-4-yl)phenyl)-1,2-dihydro-3H-imidazo[4,5-b]pyridin-3-yl)pyrrolidin-1-yl)methyl)-1H-imidazole-5-carbonitrile] |
| 1450 | Cn1c(C(=O)O)cnc1CN1CC[C@H](n2c(=O)n(-c3ccsc3)c3cccnc32)C1 [Example 70, (S)-1-Methyl-2-((3-(2-oxo-1-(thiophen-3-yl)-1,2-dihydro-3H-imidazo[4,5-b]pyridin-3-yl)pyrrolidin-1-yl)methyl)-1H-imidazole-5-carboxylic acid] |
| 140 | O=C(O)c1ccnc(CN2CC[C@H](n3c(=O)n(-c4ccc(-c5ccc(O)c(C(=O)O)c5)cc4O)c4cccnc43)C2)c1 [Example 53, (S)-2-((3-(1-(3′-Carboxy-3,4′-dihydroxy-[1,1′-biphenyl]-4-yl)-2-oxo-1,2-dihydro-3H-imidazo[4,5-b]pyridin-3-yl)pyrrolidin-1-yl)methyl)isonicotinic acid] |
| 7890 | Cn1c(C(=O)O)cnc1CN1CC[C@H](n2c(=O)n(-c3ccc(C#N)cc3)c3cccnc32)C1 [Example 64, (S)-2-((3-(1-(4-Cyanophenyl)-2-oxo-1,2-dihydro-3H-imidazo[4,5-b]pyridin-3-yl)pyrrolidin-1-yl)methyl)-1-methyl-1H-imidazole-5-carboxylic acid] |
| 2400 | Cn1c(C(=O)O)cnc1CN1CC[C@H](n2c(=O)n(-c3ccc([N+](=O)[O-])cc3)c3cccnc32)C1 [Example 65, (S)-1-Methyl-2-((3-(1-(4-nitrophenyl)-2-oxo-1,2-dihydro-3H-imidazo[4,5-b]pyridin-3-yl)pyrrolidin-1-yl)methyl)-1H-imidazole-5-carboxylic acid] |
| 590 | CSc1ccc(-n2c(=O)n([C@H]3CCN(Cc4ncc(C(=O)O)n4C)C3)c3ncccc32)cc1 [Example 60, (S)-1-Methyl-2-((3-(1-(4-(methylthio)phenyl)-2-oxo-1,2-dihydro-3H-imidazo[4,5-b]pyridin-3-yl)pyrrolidin-1-yl)methyl)-1H-imidazole-5-carboxylic acid] |
| 410 | Cn1c(C(=O)O)cnc1CN1CC[C@H](n2c(=O)n(-c3ccc(Oc4ccccc4)cc3)c3cccnc32)C1 [Example 56, (S)-1-Methyl-2-((3-(2-oxo-1-(4-phenoxyphenyl)-1,2-dihydro-3H-imidazo[4,5-b]pyridin-3-yl)pyrrolidin-1-yl)methyl)-1H-imidazole-5-carboxylic acid] |
| 520 | Cn1c(C(=O)O)cnc1CN1CC[C@H](n2c(=O)n(-c3ccc(N4CCOCC4)cc3)c3cccnc32)C1 [Example 67, (S)-1-Methyl-2-((3-(1-(4-morpholinophenyl)-2-oxo-1,2-dihydro-3H-imidazo[4,5-b]pyridin-3-yl)pyrrolidin-1-yl)methyl)-1H-imidazole-5-carboxylic acid] |
| 610 | Cn1c(C(=O)O)cnc1CN1CC[C@H](n2c(=O)n(-c3ccc(-c4ccccc4)cc3)c3ccc(C(=O)NCC(=O)O)nc32)C1 [Example 77, (S)-2-((3-(1-([1,1′-Biphenyl]-4-yl)-5-((carboxymethyl)carbamoyl)-2-oxo-1,2-dihydro-3H-imidazo[4,5-b]pyridin-3-yl)pyrrolidin-1-yl)methyl)-1-methyl-1H-imidazole-5-carboxylic acid] |
